# From ChEMBL document CHEMBL6114953, “De novo discovery of cyclic peptide inhibitors of IL-11 signaling” (Bioorg Med Chem, 2025)
# Activity calls are given as the source filed them. The calls are words filed in the database; no cut-off is given here. Where a SMILES comes first, the peptide text is derived from it. Bridges are numbered along the chain shown (N, C = ends).
# What was measured:
# [1] = Inhibition of his-tagged recombinant human IL-11 (22 to 199 residues) expressed in HEK293 cells/biotinylated recombinant human IL-11Ralpha (24 to 370 residues) expressed in HEK293 cells incubated for 1 hr by AlphaLISA assay; type: cell-based
# Interleukin-11 = target: T1, Interleukin-11 (Homo sapiens, UniProt P20809); assay: Binding affinity to CAP chip-immobilized IL-11 (unknown origin) assessed as dissociation constant by SPR analysis
# T1 sequence (P20809 whole entry): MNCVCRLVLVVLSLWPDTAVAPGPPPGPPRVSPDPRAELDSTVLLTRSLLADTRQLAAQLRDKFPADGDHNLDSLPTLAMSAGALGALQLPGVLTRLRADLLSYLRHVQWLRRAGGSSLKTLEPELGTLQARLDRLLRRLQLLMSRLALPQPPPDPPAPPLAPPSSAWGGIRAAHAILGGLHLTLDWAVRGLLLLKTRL
# [2] = target: T2, Interleukin-11 receptor subunit alpha (Homo sapiens) (UniProt Q14626); assay: Binding affinity to CAP chip-immobilized biotinylated recombinant human IL-11Ralpha by SPR analysis
# T2 sequence (whole entry): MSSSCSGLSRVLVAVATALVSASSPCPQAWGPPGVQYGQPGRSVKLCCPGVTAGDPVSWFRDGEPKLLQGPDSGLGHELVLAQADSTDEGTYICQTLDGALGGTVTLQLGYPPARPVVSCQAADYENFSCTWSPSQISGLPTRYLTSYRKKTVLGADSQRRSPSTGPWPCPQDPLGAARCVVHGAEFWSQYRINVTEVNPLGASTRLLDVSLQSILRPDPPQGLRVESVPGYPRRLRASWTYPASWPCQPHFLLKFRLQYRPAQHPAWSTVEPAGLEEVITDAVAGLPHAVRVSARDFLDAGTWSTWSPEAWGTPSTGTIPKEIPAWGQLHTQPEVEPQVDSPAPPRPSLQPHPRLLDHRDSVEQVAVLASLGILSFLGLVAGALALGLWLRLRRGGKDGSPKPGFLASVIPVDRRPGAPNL
# [3] = Binding affinity to CAP chip-immobilized IL-6 (unknown origin) by SPR analysis; details: Homo sapiens
# Homo sapiens = species: Homo sapiens; assay: Binding affinity to CAP chip-immobilized IL-6R (unknown origin) by SPR analysis
# [4] = target: T3, Interleukin-11 (Homo sapiens) (UniProt P20809); assay: Binding affinity to CAP chip-immobilized IL-11 (unknown origin) by SPR analysis
# T3 sequence (whole entry): T1 sequence (P20809 whole entry)
Kd (Interleukin-11) [nM],Activity [2],Activity [3],Activity (Homo sapiens),Activity [4],SMILES,Ki [1] [nM]
140,inactive,inactive,inactive,–,CSCC[C@@H]1NC(=O)[C@H](Cc2c[nH]cn2)NC(=O)[C@H](CO)NC(=O)[C@@H](NC(=O)[C@H](Cc2c[nH]c3ccccc23)NC(=O)[C@H](Cc2ccc(O)cc2)NC(C)=O)CSSC[C@@H](C(=O)N[C@@H](Cc2c[nH]c3ccccc23)C(=O)N[C@@H](CCCNC(=N)N)C(N)=O)NC(=O)[C@H](C(C)C)NC(=O)[C@H]([C@@H](C)O)NC(=O)[C@H]([C@@H](C)O)NC(=O)[C@H](Cc2ccc(O)cc2)NC(=O)[C@H](Cc2ccc(O)cc2)NC1=O (Ac-YWCSHMYYTTVCWR-NH2; disulfide 3-12),300
2600,inactive,inactive,inactive,–,CC(C)[C@@H]1NC(=O)[C@H](CCCNC(=N)N)NC(=O)[C@@H]2CCCN2C(=O)[C@H](CC(=O)O)NC(=O)[C@H](Cc2ccc(O)cc2)NC(=O)[C@H](Cc2c[nH]c3ccccc23)NC(=O)CNC(=O)[C@@H](NC(=O)[C@H](Cc2ccc(O)cc2)NC(=O)[C@H](Cc2c[nH]c3ccccc23)NC(=O)[C@H](Cc2ccccc2)NC(=O)[C@H](CCC(=O)O)NC(=O)[C@@H](NC(=O)[C@@H](NC(=O)[C@H](CCC(=O)O)NC(=O)[C@H](C)N)[C@@H](C)O)C(C)C)CSSC[C@@H](C(=O)N[C@@H](CO)C(=O)N[C@@H](Cc2ccc(O)cc2)C(N)=O)NC(=O)CNC1=O (H-AETVEFWYCGWYDPRVGCSY-NH2; disulfide 9-18),500
–,inactive,inactive,inactive,inactive,C[C@@H]1NC(=O)[C@H](CCCNC(=N)N)NC(=O)[C@H](CCCNC(=N)N)NC(=O)CNC(=O)[C@@H](N)CSSC[C@@H](C(N)=O)NC(=O)[C@H](CO)NC(=O)CNC(=O)CNC1=O (H-CGRRAGGSC-NH2; disulfide 1-9),> 28000
